# Tested on: not listed separately
# Assay: Selectivity index, ratio of CC50 for human THP-1 cells to MIC for Staphylococcus aureus MTCC 96
# Format: toxicity
# Conditions: not given
row,Structure (SMILES),selectivity ratio
1,COc1ccc(-n2cc(COc3ccc(/C=N/Nc4nc(-c5cc6c(ccc7ccccc76)oc5=O)cs4)cc3)nn2)cc1,5.12

# Tested on: not listed separately
# Assay: Cytotoxicity against human THP-1 cells
# Format: cell-based
# Conditions: not given
row,Structure (SMILES),CC50 [µM]
1,COc1ccc(-n2cc(COc3ccc(/C=N/Nc4nc(-c5cc6c(ccc7ccccc76)oc5=O)cs4)cc3)nn2)cc1,33.3

# Tested on: THP-1
# Assay: Cytotoxicity against human THP-1 cells assessed as cell damage at 200 uM by LDH assay
# Format: cell-based
# Conditions: thp-1, 200 µM
row,Structure (SMILES),Activity
1,COc1ccc(-n2cc(COc3ccc(/C=N/Nc4nc(-c5cc6c(ccc7ccccc76)oc5=O)cs4)cc3)nn2)cc1,Toxic

# Tested on: THP-1
# Assay: Cytotoxicity against human THP-1 cells assessed as reduction in cell viability at 200 uM by MTT assay
# Format: cell-based
# Conditions: thp-1, 200 µM
row,Structure (SMILES),Activity
1,COc1ccc(-n2cc(COc3ccc(/C=N/Nc4nc(-c5cc6c(ccc7ccccc76)oc5=O)cs4)cc3)nn2)cc1,Toxic

# Tested on: Candida albicans
# Assay: Inhibition of biofilm formation in Candida albicans MTCC 3017 incubated for 24 hrs by crystal violet staining based microtiter plate method
# Format: functional, organism-based
# Conditions: Candida albicans, MTCC 3017, 24 h; read-out: IC50
row,Structure (SMILES),IC50 [µM]
1,COc1ccc(-n2cc(COc3ccc(/C=N/Nc4nc(-c5cc6c(ccc7ccccc76)oc5=O)cs4)cc3)nn2)cc1,45.6

# Tested on: Pseudomonas aeruginosa
# Assay: Inhibition of biofilm formation in Pseudomonas aeruginosa MTCC 2453 incubated for 24 hrs by crystal violet staining based microtiter plate method
# Format: functional, organism-based
# Conditions: Pseudomonas aeruginosa, MTCC 2453, 24 h; read-out: IC50
row,Structure (SMILES),IC50 [µM]
1,COc1ccc(-n2cc(COc3ccc(/C=N/Nc4nc(-c5cc6c(ccc7ccccc76)oc5=O)cs4)cc3)nn2)cc1,30.4

# Tested on: Escherichia coli
# Assay: Inhibition of biofilm formation in Escherichia coli MTCC 739 incubated for 24 hrs by crystal violet staining based microtiter plate method
# Format: functional, organism-based
# Conditions: Escherichia coli, MTCC 739, 24 h; read-out: IC50
row,Structure (SMILES),IC50 [µM]
1,COc1ccc(-n2cc(COc3ccc(/C=N/Nc4nc(-c5cc6c(ccc7ccccc76)oc5=O)cs4)cc3)nn2)cc1,127

# Tested on: Raoultella planticola
# Assay: Inhibition of biofilm formation in Klebsiella planticola MTCC 530 incubated for 24 hrs by crystal violet staining based microtiter plate method
# Format: functional, organism-based
# Conditions: Klebsiella planticola, MTCC 530, 24 h; read-out: IC50
row,Structure (SMILES),IC50 [µM]
1,COc1ccc(-n2cc(COc3ccc(/C=N/Nc4nc(-c5cc6c(ccc7ccccc76)oc5=O)cs4)cc3)nn2)cc1,59.7

# Tested on: Micrococcus luteus
# Assay: Inhibition of biofilm formation in Micrococcus luteus MTCC 2470 incubated for 24 hrs by crystal violet staining based microtiter plate method
# Format: functional, organism-based
# Conditions: Micrococcus luteus, MTCC 2470, 24 h; read-out: IC50
row,Structure (SMILES),IC50 [µM]
1,COc1ccc(-n2cc(COc3ccc(/C=N/Nc4nc(-c5cc6c(ccc7ccccc76)oc5=O)cs4)cc3)nn2)cc1,40.2

# Tested on: Bacillus subtilis
# Assay: Inhibition of biofilm formation in Bacillus subtilis MTCC 121 incubated for 24 hrs by crystal violet staining based microtiter plate method
# Format: functional, organism-based
# Conditions: Bacillus subtilis, MTCC 121, 24 h; read-out: IC50
row,Structure (SMILES),IC50 [µM]
1,COc1ccc(-n2cc(COc3ccc(/C=N/Nc4nc(-c5cc6c(ccc7ccccc76)oc5=O)cs4)cc3)nn2)cc1,37.5

# Tested on: Staphylococcus aureus
# Assay: Inhibition of biofilm formation in Staphylococcus aureus MLS16 MTCC 2940 incubated for 24 hrs by crystal violet staining based microtiter plate method
# Format: functional, organism-based
# Conditions: Staphylococcus aureus, MLS16 MTCC 2940, 24 h; read-out: IC50
row,Structure (SMILES),IC50 [µM]
1,COc1ccc(-n2cc(COc3ccc(/C=N/Nc4nc(-c5cc6c(ccc7ccccc76)oc5=O)cs4)cc3)nn2)cc1,51.1

# Tested on: Staphylococcus aureus
# Assay: Inhibition of biofilm formation in Staphylococcus aureus […] incubated for 24 hrs by crystal violet staining based microtiter plate method
# Format: functional, organism-based
# Conditions: Staphylococcus aureus, MTCC 92, 24 h; read-out: IC50
row,Structure (SMILES),IC50 [µM]
1,COc1ccc(-n2cc(COc3ccc(/C=N/Nc4nc(-c5cc6c(ccc7ccccc76)oc5=O)cs4)cc3)nn2)cc1,30.1

# Tested on: Pichia sporocuriosa
# Assay: Antifungal activity against Issatchenkia hanoiensis MTCC 4755
# Format: functional
# Conditions: not given
row,Structure (SMILES),MIC [µM]
1,COc1ccc(-n2cc(COc3ccc(/C=N/Nc4nc(-c5cc6c(ccc7ccccc76)oc5=O)cs4)cc3)nn2)cc1,6.5

# Tested on: Pichia kudriavzevii
# Assay: Antifungal activity against Candida krusei MTCC 3020
# Format: functional
# Conditions: not given
row,Structure (SMILES),MIC [µM]
1,COc1ccc(-n2cc(COc3ccc(/C=N/Nc4nc(-c5cc6c(ccc7ccccc76)oc5=O)cs4)cc3)nn2)cc1,> 208

# Tested on: Nakaseomyces glabratus
# Assay: Antifungal activity against Candida glabrata MTCC 3019
# Format: functional
# Conditions: not given
row,Structure (SMILES),MIC [µM]
1,COc1ccc(-n2cc(COc3ccc(/C=N/Nc4nc(-c5cc6c(ccc7ccccc76)oc5=O)cs4)cc3)nn2)cc1,> 208

# Tested on: [Candida] aaseri
# Assay: Antifungal activity against Candida aaseri MTCC 1962
# Format: functional
# Conditions: Yamadazyma aaseri
row,Structure (SMILES),MIC [µM]
1,COc1ccc(-n2cc(COc3ccc(/C=N/Nc4nc(-c5cc6c(ccc7ccccc76)oc5=O)cs4)cc3)nn2)cc1,> 208

# Tested on: Candida parapsilosis
# Assay: Antifungal activity against Candida parapsilosis MTCC 1745
# Format: functional
# Conditions: Lodderomyces parapsilosis
row,Structure (SMILES),MIC [µM]
1,COc1ccc(-n2cc(COc3ccc(/C=N/Nc4nc(-c5cc6c(ccc7ccccc76)oc5=O)cs4)cc3)nn2)cc1,> 208

# Tested on: Candida albicans
# Assay: Antifungal activity against Candida albicans MTCC 4748
# Format: functional
# Conditions: not given
row,Structure (SMILES),MIC [µM]
1,COc1ccc(-n2cc(COc3ccc(/C=N/Nc4nc(-c5cc6c(ccc7ccccc76)oc5=O)cs4)cc3)nn2)cc1,> 208

# Tested on: Candida albicans
# Assay: Antifungal activity against Candida albicans MTCC 3958
# Format: functional
# Conditions: not given
row,Structure (SMILES),MIC [µM]
1,COc1ccc(-n2cc(COc3ccc(/C=N/Nc4nc(-c5cc6c(ccc7ccccc76)oc5=O)cs4)cc3)nn2)cc1,> 208

# Tested on: Candida albicans
# Assay: Antifungal activity against Candida albicans MTCC 3018
# Format: functional
# Conditions: not given
row,Structure (SMILES),MIC [µM]
1,COc1ccc(-n2cc(COc3ccc(/C=N/Nc4nc(-c5cc6c(ccc7ccccc76)oc5=O)cs4)cc3)nn2)cc1,> 208

# Tested on: Candida albicans
# Assay: Antifungal activity against Candida albicans MTCC 1637
# Format: functional
# Conditions: not given
row,Structure (SMILES),MIC [µM]
1,COc1ccc(-n2cc(COc3ccc(/C=N/Nc4nc(-c5cc6c(ccc7ccccc76)oc5=O)cs4)cc3)nn2)cc1,> 208

# Tested on: Candida albicans
# Assay: Antifungal activity against Candida albicans MTCC 854
# Format: functional
# Conditions: not given
row,Structure (SMILES),MIC [µM]
1,COc1ccc(-n2cc(COc3ccc(/C=N/Nc4nc(-c5cc6c(ccc7ccccc76)oc5=O)cs4)cc3)nn2)cc1,6.5

# Tested on: Pichia sporocuriosa
# Assay: Fungicidal activity against Issatchenkia hanoiensis MTCC 4755
# Format: functional
# Conditions: not given
row,Structure (SMILES),MFC [µM]
1,COc1ccc(-n2cc(COc3ccc(/C=N/Nc4nc(-c5cc6c(ccc7ccccc76)oc5=O)cs4)cc3)nn2)cc1,13

# Tested on: Candida albicans
# Assay: Fungicidal activity against Candida albicans MTCC 183
# Format: functional
# Conditions: not given
row,Structure (SMILES),MFC [µM]
1,COc1ccc(-n2cc(COc3ccc(/C=N/Nc4nc(-c5cc6c(ccc7ccccc76)oc5=O)cs4)cc3)nn2)cc1,51.9

# Tested on: Candida albicans
# Assay: Fungicidal activity against Candida albicans MTCC 854
# Format: functional
# Conditions: not given
row,Structure (SMILES),MFC [µM]
1,COc1ccc(-n2cc(COc3ccc(/C=N/Nc4nc(-c5cc6c(ccc7ccccc76)oc5=O)cs4)cc3)nn2)cc1,13

# Tested on: Pseudomonas aeruginosa
# Assay: Bactericidal activity against Pseudomonas aeruginosa MTCC 2453
# Format: functional
# Conditions: not given
row,Structure (SMILES),MBC [µM]
1,COc1ccc(-n2cc(COc3ccc(/C=N/Nc4nc(-c5cc6c(ccc7ccccc76)oc5=O)cs4)cc3)nn2)cc1,51.9

# Tested on: Raoultella planticola
# Assay: Bactericidal activity against Klebsiella planticola MTCC 530
# Format: functional
# Conditions: not given
row,Structure (SMILES),MBC [µM]
1,COc1ccc(-n2cc(COc3ccc(/C=N/Nc4nc(-c5cc6c(ccc7ccccc76)oc5=O)cs4)cc3)nn2)cc1,12.9

# Tested on: Escherichia coli
# Assay: Bactericidal activity against Escherichia coli MTCC 739
# Format: functional
# Conditions: not given
row,Structure (SMILES),MBC [µM]
1,COc1ccc(-n2cc(COc3ccc(/C=N/Nc4nc(-c5cc6c(ccc7ccccc76)oc5=O)cs4)cc3)nn2)cc1,25.9

# Tested on: Micrococcus luteus
# Assay: Bactericidal activity against Micrococcus luteus MTCC 2470
# Format: functional
# Conditions: not given
row,Structure (SMILES),MBC [µM]
1,COc1ccc(-n2cc(COc3ccc(/C=N/Nc4nc(-c5cc6c(ccc7ccccc76)oc5=O)cs4)cc3)nn2)cc1,25.9

# Tested on: Bacillus subtilis
# Assay: Bactericidal activity against Bacillus subtilis MTCC 121
# Format: functional
# Conditions: not given
row,Structure (SMILES),MBC [µM]
1,COc1ccc(-n2cc(COc3ccc(/C=N/Nc4nc(-c5cc6c(ccc7ccccc76)oc5=O)cs4)cc3)nn2)cc1,12.9

# Tested on: Staphylococcus aureus
# Assay: Bactericidal activity against Staphylococcus aureus MTCC 96
# Format: functional
# Conditions: not given
row,Structure (SMILES),MBC [µM]
1,COc1ccc(-n2cc(COc3ccc(/C=N/Nc4nc(-c5cc6c(ccc7ccccc76)oc5=O)cs4)cc3)nn2)cc1,21.4

# Tested on: Candida albicans
# Assay: Antifungal activity against Candida albicans MTCC 227
# Format: functional
# Conditions: not given
row,Structure (SMILES),MIC [µM]
1,COc1ccc(-n2cc(COc3ccc(/C=N/Nc4nc(-c5cc6c(ccc7ccccc76)oc5=O)cs4)cc3)nn2)cc1,> 208

# Tested on: Candida albicans
# Assay: Antifungal activity against Candida albicans MTCC 183
# Format: functional
# Conditions: not given
row,Structure (SMILES),MIC [µM]
1,COc1ccc(-n2cc(COc3ccc(/C=N/Nc4nc(-c5cc6c(ccc7ccccc76)oc5=O)cs4)cc3)nn2)cc1,13

# Tested on: Pseudomonas aeruginosa
# Assay: Antibacterial activity against Pseudomonas aeruginosa MTCC 2453 assessed as inhibition of bacterial growth by microtiter broth dilution method
# Format: functional
# Conditions: not given
row,Structure (SMILES),MIC [µM]
1,COc1ccc(-n2cc(COc3ccc(/C=N/Nc4nc(-c5cc6c(ccc7ccccc76)oc5=O)cs4)cc3)nn2)cc1,12.9

# Tested on: Escherichia coli
# Assay: Antibacterial activity against Escherichia coli MTCC 739 assessed as inhibition of bacterial growth by microtiter broth dilution method
# Format: functional
# Conditions: not given
row,Structure (SMILES),MIC [µM]
1,COc1ccc(-n2cc(COc3ccc(/C=N/Nc4nc(-c5cc6c(ccc7ccccc76)oc5=O)cs4)cc3)nn2)cc1,6.5

# Tested on: Raoultella planticola
# Assay: Antibacterial activity against Klebsiella planticola MTCC 530 assessed as inhibition of bacterial growth by microtiter broth dilution method
# Format: functional
# Conditions: not given
row,Structure (SMILES),MIC [µM]
1,COc1ccc(-n2cc(COc3ccc(/C=N/Nc4nc(-c5cc6c(ccc7ccccc76)oc5=O)cs4)cc3)nn2)cc1,3.1

# Tested on: Micrococcus luteus
# Assay: Antibacterial activity against Micrococcus luteus MTCC 2470 assessed as inhibition of bacterial growth by microtiter broth dilution method
# Format: functional
# Conditions: not given
row,Structure (SMILES),MIC [µM]
1,COc1ccc(-n2cc(COc3ccc(/C=N/Nc4nc(-c5cc6c(ccc7ccccc76)oc5=O)cs4)cc3)nn2)cc1,12.9

# Tested on: Bacillus subtilis
# Assay: Antibacterial activity against Bacillus subtilis MTCC 121 assessed as inhibition of bacterial growth by microtiter broth dilution method
# Format: functional
# Conditions: not given
row,Structure (SMILES),MIC [µM]
1,COc1ccc(-n2cc(COc3ccc(/C=N/Nc4nc(-c5cc6c(ccc7ccccc76)oc5=O)cs4)cc3)nn2)cc1,6.5

# Tested on: Staphylococcus aureus
# Assay: Antibacterial activity against Staphylococcus aureus MLS16 MTCC 2940 assessed as inhibition of bacterial growth by microtiter broth dilution method
# Format: functional
# Conditions: not given
row,Structure (SMILES),MIC [µM]
1,COc1ccc(-n2cc(COc3ccc(/C=N/Nc4nc(-c5cc6c(ccc7ccccc76)oc5=O)cs4)cc3)nn2)cc1,> 208

# Tested on: Staphylococcus aureus
# Assay: Antibacterial activity against Staphylococcus aureus MTCC 96 assessed as inhibition of bacterial growth by microtiter broth dilution method
# Format: functional
# Conditions: not given
row,Structure (SMILES),MIC [µM]
1,COc1ccc(-n2cc(COc3ccc(/C=N/Nc4nc(-c5cc6c(ccc7ccccc76)oc5=O)cs4)cc3)nn2)cc1,6.5

# Reference: ChEMBL document CHEMBL4673372, “1,2,3-triazole-thiazole hybrids: Synthesis, in vitro antimicrobial activity and antibiofilm studies” (Bioorg Med Chem Lett, 2021)
